# Values of other authors in publication PMC7395068, “The evolution of strategies to minimise the risk of human drug-induced liver injury (DILI) in drug discovery and development” (Archives of Toxicology, 2020).
# Read-outs that look alike come from different tables or passages of the source.
# Experiments:
# HepG2 cells [1] = details: cited from earlier work
# [2] = cited from earlier work
# [3] = system: THLE or HepG2 cells, isolated mitochondria, BSEP; details: In vitro Assay; ref Aleo 2019; cited from earlier work
# [4] = ref Chen 2016; cited from earlier work
# human hepatocytes = details: In vitro Assay; ref Xu 2008; cited from earlier work
# hLiMTs = details: In vitro Assay; ref Proctor 2017; cited from earlier work
# PHH spheroids = details: In vitro Assay; ref Vorrink 2018; cited from earlier work
# [5] = system: HepG2 C3A spheroid, BSEP, Glu/Gal in HepG2 cells, bioactivation; details: In vitro Assay; ref Williams 2019; cited from earlier work
# [6] = ref Chen 2011; cited from earlier work
# PHH = details: In vitro Assay; ref Proctor 2017; cited from earlier work
# HepG2 cells [7] = details: In vitro Assay; ref O'Brien 2006; cited from earlier work
# HepG2 cells [8] = details: In vitro Assay; ref Persson 2013; cited from earlier work
# [9] = system: THLE-Null and THLE-3A4 cells; details: In vitro Assay; ref Gustafsson 2014; cited from earlier work
# [10] = system: HepG2 cells, primary human hepatocytes; details: In vitro Assay; ref Garside 2014; cited from earlier work
# rBsep = details: In vitro Assay; ref Dawson 2012; cited from earlier work
# [11] = assignment in Tolosa 2012, ref Tolosa 2012
# [12] = In vitro Assay, ref Tolosa 2012
smiles,measurement,setting,value
CCOC(=O)CC(SP(=S)(OC)OC)C(=O)OCC (stereo not drawn) [malathion],"Structural based (HCI), In vitro Assay","HepG2 cells [1]; HepG2 HCI, ref Tolosa 2012",+VE
same,In vivo DILI,[2]; [11],+VE
CNCCCC12CCC(c3ccccc31)c1ccccc12 [maprotiline],Partition Hybrid HRM Score,[3],+VE
same,Ro2 Hybrid HRM Score,[3],+VE
same,Structural based (HCI),HepG2 cells [1]; [12],+VE
same,"DILI +VE (5-8), DILI -VE (-4)",[4],-VE
same,DILI severity category,[4],Ambiguous DILI-concern
same,Structural based (HCI),human hepatocytes,-VE
same,In vivo DILI,[2]; […],-VE
same,In vivo DILI,[2]; ref Tolosa 2012,+VE
same,In vivo DILI,[2]; ref Xu 2008,-VE
[Cl][Hg][Cl] [mercury ii chloride],"Structural based (HCI), In vitro Assay","HepG2 cells [1]; HepG2 HCI, ref Tolosa 2012",+VE
same,In vivo DILI,[2]; [11],+VE
CN(CCCC(=O)c1cccnc1)N=O [nnk],"Structural based (HCI), In vitro Assay","HepG2 cells [1]; HepG2 HCI, ref Tolosa 2012",+VE
same,In vivo DILI,[2]; [11],+VE
C[n+]1ccc(-c2cc[n+](C)cc2)cc1 [paraquat],"Structural based (HCI), In vitro Assay","HepG2 cells [1]; HepG2 HCI, ref Tolosa 2012",+VE
same,In vivo DILI,[2]; [11],+VE
Fc1ccc([C@@H]2CCNC[C@H]2COc2ccc3c(c2)OCO3)cc1 [paroxetine],Partition Hybrid HRM Score,[3],+VE
same,Ro2 Hybrid HRM Score,[3],-VE
same,"DILI +VE (5-8), DILI -VE (-4)",[4],+VE
same,DILI severity category,[4],vLess-DILI-Concern
same,hLiMTs ATP <100uM,hLiMTs,+VE (IC50 threshold of 100 µM)
same,hLiMTs ATP <20 x Cmax,PHH spheroids,-VE
same,Bayesian Machine Learning,[5],+VE
same,Structural based (HCI),human hepatocytes,-VE
same,DILI Score (FDA) (1-8),[6],8
same,PHH ATP <100uM,PHH,+VE (IC50 threshold of 100 µM)
same,In vivo DILI,[2]; […],-VE
same,In vivo DILI,[2]; ref Aleo 2019,+VE
same,In vivo DILI,[2]; ref O'Brien 2006,+VE
same,In vivo DILI,[2]; ref Proctor 2017,+VE
same,In vivo DILI,[2]; ref Vorrink 2018,-VE
same,In vivo DILI,[2]; ref Williams 2019,+VE
same,In vivo DILI,[2]; ref Xu 2008,-VE
same,Structural based (HCI),HepG2 cells [7],-VE
Oc1c(Cl)c(Cl)c(Cl)c(Cl)c1Cl [pentachlorophenol],Structural based (HCI),HepG2 cells [1],+VE
same,In vivo DILI,[2]; in vivo,+VE
CCCCOCCOCCOCc1cc2c(cc1CCC)OCO2 [piperonyl butoxide],"Structural based (HCI), In vitro Assay","HepG2 cells [1]; HepG2 HCI, ref Tolosa 2012",+VE
same,In vivo DILI,[2]; [11],+VE
CCCC(CCC)C(=O)O [sodium valproate],"Structural based (HCI), In vitro Assay","HepG2 cells [1]; HepG2 HCI, ref Tolosa 2012",+VE
OC[C@@H](O)[C@@H](O)[C@H](O)[C@@H](O)CO [sorbitol],Structural based (HCI),HepG2 cells [1]; [12],-VE
same,"DILI +VE (5-8), DILI -VE (-4)",[4],-VE
same,DILI severity category,[4],vNo-DILI-Concern
same,Structural based (HCI),human hepatocytes,-VE
same,In vivo DILI,[2]; ref O'Brien 2006,-VE
same,In vivo DILI,[2]; ref Tolosa 2012,-VE
same,In vivo DILI,[2]; ref Xu 2008,-VE
C[C@H](CCC(=O)NCCS(=O)(=O)O)[C@H]1CC[C@H]2[C@@H]3CC[C@@H]4C[C@H](O)CC[C@]4(C)[C@H]3CC[C@]12C [taurolithocholate],"Structural based (HCI), In vitro Assay","HepG2 cells [1]; HepG2 HCI, ref Tolosa 2012",+VE
same,In vivo DILI,[2]; [11],+VE
CC(C)(C)OO [tert-butyl hydroperoxide],"Structural based (HCI), In vitro Assay",HepG2 cells [1],+VE
same,In vivo DILI,[2]; in vivo,+VE
CC(=N)S [thioacetamide],Structural based (HCI),HepG2 cells [1]; [12],-VE
same,Structural based (HCI),human hepatocytes,-VE
same,In vivo DILI,[2]; ref O'Brien 2006,+VE
same,In vivo DILI,[2]; ref Tolosa 2012,+VE
same,In vivo DILI,[2]; ref Xu 2008,+VE
CCN(CC)CCOc1ccc2c(c1)C(=O)c1cc(OCCN(CC)CC)ccc1-2 [tilorone],"Structural based (HCI), In vitro Assay","HepG2 cells [1]; HepG2 HCI, ref Tolosa 2012",+VE
same,In vivo DILI,[2]; [11],+VE
CC(c1cc2ccccc2s1)N(O)C(N)=O (stereo not drawn) [zileuton],Cluser analysis,HepG2 cells [8],-VE
same,Structural based (HCI),HepG2 cells [8],+VE
same,THLE-Null,[9],-VE
same,THLE-Null/3A4,[9],-VE
same,"DILI +VE (5-8), DILI -VE (-4)",[4],+VE
same,DILI severity category,[4],vMost-DILI-Concern
same,hLiMTs ATP <100uM,hLiMTs,-VE
same,hLiMTs ATP <20 x Cmax,PHH spheroids,-VE
same,Cluster 1-6 +VE Assay,[10],-VE
same,Bayesian Machine Learning,[5],+VE
same,Structural based (HCI),human hepatocytes,+VE
same,DILI Score (FDA) (1-8),[6],5
same,PHH ATP <100uM,PHH,-VE
same,In vivo DILI,[2]; […],+VE
same,In vivo DILI,[2]; ref Dawson 2012,+VE
same,In vivo DILI,[2]; ref Garside 2014,+VE
same,In vivo DILI,[2]; ref Gustafsson 2014,+VE
same,In vivo DILI,[2]; ref O'Brien 2006,+VE
same,In vivo DILI,[2]; ref Persson 2013,+VE
same,In vivo DILI,[2]; ref Proctor 2017,+VE
same,In vivo DILI,[2]; ref Vorrink 2018,+VE
same,In vivo DILI,[2]; ref Williams 2019,+VE
same,In vivo DILI,[2]; ref Xu 2008,+VE
same,Inhibition of rBsep cutoff<1& cmax u>.2,rBsep,-VE
same,Inhibition of rBsep cutoff<3,rBsep,-VE
same,Structural based (HCI),HepG2 cells [7],+VE
